According to the supplement of paper PMC11451515:

Legend:
Test in all cases: AUC of viability dose-response curve (% viability x log10 dose units); higher = less sensitive
Conditions in all cases: 48 h
NOMO1 = test system: NOMO1
Summary of the method: (§1)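 In 1536-well plates, leukemia cells adapted to each medium (500 or 1000 cells/well) were exposed for 48 h at 37°C to library compounds in DMSO across 11 threefold doses, 47 μM down to 0.79 nM. Viability was read by CellTiter-Glo One luminescence and normalised per plate to DMSO and cell-free wells. A four-parameter log-logistic fit over log10 doses was integrated by trapezoidal rule. This yielded the area under the curve, with over-full-viability curves scaled and quality-control failures dropped.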

SEM cells = test system: SEM cells
Summary of the method: as §1

P12-Ichikawa = test system: P12-Ichikawa
Summary of the method: as §1

[1] = RPMI 5 mM glucose + 10% dialyzed FBS

SMILES | AUC of viability dose-response curve (NOMO1; HPLM + 10% dialyzed FBS) | AUC of viability dose-response curve (NOMO1; RPMI 5 mM glucose + 10% FBS) | AUC of viability dose-response curve (NOMO1; [1]) | AUC of viability dose-response curve (SEM cells; HPLM + 10% dialyzed FBS) | AUC of viability dose-response curve (SEM cells; RPMI 5 mM glucose + 10% FBS) | AUC of viability dose-response curve (SEM cells; [1]) | AUC of viability dose-response curve (P12-Ichikawa; HPLM + 10% dialyzed FBS) | AUC of viability dose-response curve (P12-Ichikawa; RPMI 5 mM glucose + 10% FBS) | AUC of viability dose-response curve (P12-Ichikawa; [1])
Cc1cnn(C)c1C(=O)Nc1cc(Nc2ccc3c(/C=C/c4ccccn4)n[nH]c3c2)ccc1F | 422 | 460 | 454 | 343 | 311 | 330 | 424 | 449 | 441
Cc1nc2cnc3ccc(C#Cc4cccnc4)cc3c2n1-c1ccc(C(C)(C)C#N)cc1 | 264 | 259 | 268 | – | – | – | 314 | 251 | 255
Cc1coc2c1C(=O)C(=O)c1c-2ccc2c(C)cccc12 | 443 | 451 | 460 | – | – | – | 454 | 476 | 446
CNCCCC12CCC(c3ccccc31)c1ccccc12 | 429 | 426 | 411 | 453 | 443 | 469 | 442 | 439 | 428
CC1CNc2c(cccc2[S+](=O)([O-])N[C@@H](CCCNC(=N)N)C(=O)N2CC[C@@H](C)C[C@@H]2C(=O)O)C1 (some centres not stated) | 435 | 465 | 465 | 453 | 450 | 462 | 468 | 473 | 472
COC\1=C(/OC)C(=O)\C(=C(C)/C1=O)CCCCCCCCCCO | 461 | 464 | 468 | 460 | 471 | 456 | 471 | 456 | 459
CC[C@H](/C=C/[C@@H](C)[C@H]1CC[C@H]2[C@@H]3CC=C4C[C@@H](O)CC[C@]4(C)[C@H]3CC[C@]12C)C(C)C | 427 | 434 | 421 | 438 | 458 | 463 | 456 | 449 | 429
COc1cc(F)c(F)c(Nc2ccc(I)cc2F)c1N[S+](=O)([O-])C1(C[C@H](O)CO)CC1 | 449 | 455 | 457 | 465 | 443 | 461 | 450 | 461 | 456
COc1ccc([C@@H]2CC(=O)c3c(O)cc(O[C@@H]4O[C@H](CO[C@@H]5O[C@@H](C)[C@H](O)[C@@H](O)[C@H]5O)[C@@H](O)[C@H](O)[C@H]4O)cc3O2)cc1O | 477 | 457 | 468 | 465 | 469 | 469 | 467 | 468 | 473
O=C1NC(=O)/C(=C/c2ccc3nccc(-c4ccncc4)c3c2)S1 | 293 | 351 | 296 | 289 | 290 | 290 | 341 | 308 | 317
C[C@H]1C[C@@H]2[C@H](CC[C@@]3(C)[C@H]2CC[C@]3(OC(C)=O)C(C)=O)[C@@]\4(C)CCC(=O)\C=C14 | 471 | 472 | 458 | 417 | 433 | 425 | 464 | 446 | 442
C[C@]12CCC(=O)C=C1CC[C@@H]1[C@@H]2[C@@H](O)C[C@@]2(C)[C@H]1CC[C@]2(O)C(=O)CO | 474 | 456 | 458 | 466 | 427 | 443 | 447 | 425 | 412
CCN1CCN(c2ccc(Nc3cc(N(C)C(=O)Nc4c(Cl)c(OC)cc(OC)c4Cl)ncn3)cc2)CC1 | 372 | 395 | 399 | 347 | 316 | 351 | 429 | 428 | 423
O=C(Nc1cccc(C(F)(F)F)c1)Nc1cc([S+](=O)([O-])NC2CC2)ccc1-c1ccsc1 | – | – | – | 466 | 399 | 454 | 466 | 465 | 460
CCC[S+]([O-])c1ccc2[nH]c(NC(=O)OC)nc2c1 (configuration not stated) | 429 | 420 | 384 | 409 | 399 | 411 | 409 | 393 | 405
N[S+]([O-])(=O)C1=CC=C(NC/2=C/C(=O)C3=CC=CC=C3C2=O)C=C1 | 446 | 465 | 461 | 448 | 399 | 436 | 464 | 467 | 459
C[C@H](NC(=O)c1sccc1OCc1ccc(Cl)cc1)c1ccccc1 | 382 | 388 | 394 | 408 | 449 | 450 | 407 | 398 | 407
COc1ccc(-c2ccc3ncc4c(c3c2)n(-c2ccc(N3CCNCC3)c(C(F)(F)F)c2)c(=O)n4C)cn1 | 209 | 255 | 218 | – | – | – | – | – | –
CN(C)[S+](=O)([O-])c1ccc2c(c1)C(=Cc1cc3c([nH]1)CCCC3)C(=O)N2 | 467 | 453 | 455 | 462 | 462 | 459 | 467 | 464 | 468
COC(=O)Nc1cc(Nc2cc(NC3CC3)c3ncc(C#N)n3n2)c(Cl)c(N2CCN(C)CC2)c1 | 384 | 385 | 368 | 363 | 346 | 328 | 423 | 400 | 392
Cc1ccccc1C(=O)c1ccc(Nc2ccc(Br)cc2N)cc1Cl | 467 | 466 | 455 | – | – | – | 454 | 461 | 441
O=C1[C@H](Cc2ccc(O)cc2)N2C(=O)CCN(C(=O)NCc3ccccc3)[C@H]2CN1Cc1cccc2ccccc12 | – | – | – | 334 | 384 | 363 | 404 | 375 | 361
CN[C@@H]1[C@@H](O)[C@@H](O[C@@H]2[C@@H](O)[C@H](O[C@H]3O[C@H](CN)[C@@H](O)[C@H](O)[C@H]3O)[C@@H](N)C[C@H]2NC(=O)[C@@H](O)CN)OC[C@]1(C)O | 452 | 457 | 440 | 453 | 463 | 468 | 457 | 449 | 411

SMILES | AUC of viability dose-response curve (NOMO1; HPLM + 10% dialyzed FBS) | AUC of viability dose-response curve (NOMO1; RPMI 5 mM glucose + 10% FBS) | AUC of viability dose-response curve (NOMO1; [1]) | AUC of viability dose-response curve (SEM cells; HPLM + 10% dialyzed FBS) | AUC of viability dose-response curve (SEM cells; RPMI 5 mM glucose + 10% FBS) | AUC of viability dose-response curve (SEM cells; [1]) | AUC of viability dose-response curve (P12-Ichikawa; HPLM + 10% dialyzed FBS) | AUC of viability dose-response curve (P12-Ichikawa; RPMI 5 mM glucose + 10% FBS) | AUC of viability dose-response curve (P12-Ichikawa; [1])
CCCCC(=O)O[C@]1(C(=O)CO)[C@H](C)C[C@H]2[C@@H]3CCC4=CC(=O)C=C[C@]4(C)[C@@]3(F)[C@@H](O)C[C@@]21C | 467 | 474 | 472 | 378 | 362 | 350 | 372 | 315 | 292
C[C@](Cc1c[nH]c2ccccc12)(NC(=O)OC1C2CC3CC(C2)CC1C3)C(=O)NC[C@H](NC(=O)CCC(=O)O)c1ccccc1 (some centres not stated) | 455 | 413 | 435 | 447 | 433 | 430 | 469 | 461 | 456
CC(C)C1NC(=O)C(NC(=O)C2=C3\N=C\4/C(=C(C)\C(=O)\C(=C4C(=O)NC5C(C)OC(=O)C(C(C)C)N(C)C(=O)CN(C)C(=O)C6CCCN6C(=O)C(NC5=O)C(C)C)N)OC3=C(C)C=C2)C(C)OC(=O)C(C(C)C)N(C)C(=O)CN(C)C(=O)C7CCCN7C1=O (configuration not stated) | 27.9 | 28.1 | 23 | 26.3 | 20.8 | 23.4 | 31.2 | 24.5 | 38
N[S+]([O-])(=O)C1=C(Cl)C=C2\N=C/N[S+]([O-])(=O)C2=C1 | 465 | 470 | 475 | 380 | 426 | 418 | 459 | 456 | 468
CC(C)(O)CC[C@@H](O)[C@](C)(O)[C@H]1CC[C@@]2(O)C/3=C/C(=O)[C@@H]4C[C@@H](O)[C@@H](O)C[C@]4(C)[C@H]3CC[C@]12C | 410 | 421 | 429 | 434 | 449 | 412 | 453 | 444 | 429
CC[S+](=O)([O-])c1cccc(-c2cc(C(=O)NC3CCN(C)CC3)c(C)c3[nH]c4ncc(C)cc4c23)c1 | 354 | 385 | 359 | 312 | 285 | 297 | 298 | 290 | 320
CN[C@@H](C)[C@H]1[C@H](O)C[C@@]2(C)[C@@H]3CC[C@H]4C(C)(C)[C@@H](NC)CC[C@@]45C[C@@]35CC[C@]12C | 445 | 454 | 445 | 376 | 392 | 399 | 464 | 450 | 425
C[C@]12COC(=O)C[C@@H]1CC[C@@H]1[C@@H]2CC[C@@]2(C)[C@H]1CC[C@]2(C)O | 472 | 443 | 443 | 451 | 457 | 447 | 457 | 463 | 471
ClC1=CC=C(C=C1)C(C#N)C2=C(Cl)C=C(C=C2Cl)N3\N=C/C(=O)NC3=O (configuration not stated) | 453 | 458 | 455 | 428 | 415 | 451 | 460 | 454 | 459
CN1CCN(C2=Nc3cc(Cl)ccc3Nc3ccccc32)CC1 | 463 | 471 | 470 | 459 | 428 | 452 | 477 | 472 | 471
CC(C)OC(=O)C(C(=O)OC(C)C)=C1S\C=C/S1 | 425 | 435 | 437 | 458 | 446 | 438 | 443 | 433 | 424
CC(C)CNc1ccnc(NCc2csc(-c3ccccc3)n2)n1 | 414 | 456 | 446 | 447 | 447 | 458 | 440 | 436 | 442
CCN(CC)CCOc1ccc(/C(=C(\Cl)c2ccccc2)c2ccccc2)cc1 | 458 | 471 | 473 | 470 | 462 | 470 | 466 | 469 | 456
S=C(NCc1ccc2c(c1)OCO2)N1CCN(c2ncnc3c2oc2ccccc23)CC1 | 416 | 438 | 445 | – | – | – | 406 | 387 | 389
O=C(C=CC#Cc1cccc(N[S+](=O)([O-])c2ccccc2)c1)NO | 367 | 374 | 371 | 354 | 358 | 352 | 353 | 345 | 346
FC1=C(C=C(C\C2=N\NC(=O)C3=C2C=CC=C3)C=C1)C(=O)N4CCN(CC4)C(=O)C5CC5 | 439 | 400 | 422 | – | – | – | 421 | 390 | 393
CC(C)c1noc(N2CCC(COc3ccc(-c4ccc([S+](C)(=O)[O-])cc4)nc3)CC2)n1 | 467 | 459 | 463 | – | – | – | 454 | 453 | 452
CC(C)c1nc(CN(C)C(=O)N[C@H](C(=O)N[C@@H](Cc2ccccc2)C[C@H](O)[C@H](Cc2ccccc2)NC(=O)OCc2cncs2)C(C)C)cs1 | – | – | – | 410 | 429 | 427 | 425 | 411 | 396
NC\1=N\C(=O)N(\C=C1)[C@@H]2O[C@H](CO)[C@@H](O)[C@@H]2O | 186 | 201 | 154 | – | – | – | 38 | 25.6 | 39.2
Cn1cnc2c(F)c(Nc3ccc(Br)cc3F)c(C(=O)NOCCO)cc21 | – | – | – | 392 | 382 | 363 | – | – | –
COc1ccccc1OCC(O)COC(N)=O (configuration not stated) | – | – | – | 467 | 465 | 459 | 466 | 461 | 461
N#CCNC(=O)c1ccc(-c2ccnc(Nc3ccc(N4CCOCC4)cc3)n2)cc1 | – | – | – | 405 | 412 | 394 | 447 | 442 | 434
